Measured values: patent US8754054B2, “Antibacterial compounds, methods of making them, and uses thereof” (Albany Molecular Research, Inc., priority 2010, dated 2014)

Legend:
Assay in all cases: Antibacterial activity in vitro, NCCLS dilution method (Table 10)
Format in all cases: cell-based
E. coli 102 (ATCC 25922) = conditions: Gram −, QC strain
Excerpt: (§1) NCCLS standards for antimicrobial susceptibility testing using the dilution method were followed. See: Performance Standards for Antimicrobial Susceptibility Testing; Fourteenth Informational Supplement. NCCLS Document M100-S14 (ISBN 1-56238-516-X), 2004. NCCLS, 940 West Valley Road, Suite 1400, Wayne, Pa. 19087-1898 USA, 2004; Methods for Dilution Antimicrobial Susceptibility Tests for Bacteria that Grow Aerobically; Approved Standard—Sixth Edition. NCCLS document M7-A6 (IBSBN 1-56238-486-4), NCCLS, 940 West Valley Road, Suite 1400, Wayne, Pa. 19087-1898 USA, 2003, which are hereby incorporated by reference in their entirety.

[1] = test system: P. aeruginosa (ATCC 27853); conditions: Gram −
Excerpt: as §1

S. pneumoniae 940 = conditions: S. pneumoniae 940, Gram +, PRSP
Excerpt: as §1

S. aureus 1137 = conditions: S. aureus 1137, Gram +, MRSA
Excerpt: as §1

S. marcescens 1635 = conditions: S. marcescens 1635, Gram −
Excerpt: as §1

M. catarrhalis 557 = conditions: M. catarrhalis 557, Gram −
Excerpt: as §1

S. pneumoniae 975 = conditions: S. pneumoniae 975, Gram +, PSSP
Excerpt: as §1

E. coli 2269 = conditions: E. coli 2269, Gram −, ESBL-producer
Excerpt: as §1

E. faecium 700221 = conditions: E. faecium 700221, Gram +, VRE
Excerpt: as §1

S. aureus (ATCC 29213) = conditions: Gram +, MSSA
Excerpt: as §1

S. aureus 1725 = conditions: S. aureus 1725, Gram +, LRSA
Excerpt: as §1

S. aureus (ATCC 6538) = conditions: Gram +, MSSA
Excerpt: as §1

H. influenzae 1742 = conditions: H. influenzae 1742, Gram −, ampR
Excerpt: as §1

K. pneumoniae 2262 = conditions: K. pneumoniae 2262, Gram −, ampC, MDR
Excerpt: as §1

[2] = test system: H. parainfluenzae 2319 (ATCC 7901); conditions: Gram −
Excerpt: as §1

S. aureus (ATCC 43300) = conditions: Gram +, MRSA
Excerpt: as §1

S. pneumoniae 376 = conditions: S. pneumoniae 376, Gram +, Quin-R
Excerpt: as §1

K. pneumoniae 2239 = conditions: K. pneumoniae 2239, Gram −
Excerpt: as §1

S. aureus 2012 = conditions: S. aureus 2012, Gram +, VISA
Excerpt: as §1

E. faecalis 846 = conditions: E. faecalis 846, Gram +, VRE
Excerpt: as §1

S. agalactiae 2033 = conditions: S. agalactiae 2033, Gram +
Excerpt: as §1

S. pneumoniae 933 = conditions: S. pneumoniae 933, Gram +, MDR
Excerpt: as §1

S. saprophyticus 495 = conditions: S. saprophyticus 495, Gram +
Excerpt: as §1

S. epidermidis 1452 = conditions: S. epidermidis 1452, Gram +, MRSE
Excerpt: as §1

S. epidermidis 1597 = conditions: S. epidermidis 1597, Gram +, MSSE
Excerpt: as §1

S. aureus 2018 = conditions: S. aureus 2018, Gram +, VISA
Excerpt: as §1

S. aureus 2144 = conditions: S. aureus 2144, Gram +, CA, USA 300 Strain
Excerpt: as §1

S. aureus 1651 = conditions: S. aureus 1651, Gram +, LRSA
Excerpt: as §1

S. pyogenes 723 = conditions: S. pyogenes 723, Gram +
Excerpt: as §1

| Compound | antibacterial activity (dilution susceptibility test) (E. coli 102 (ATCC 25922)) | antibacterial activity (dilution susceptibility test) [1] | antibacterial activity (dilution susceptibility test) (S. pneumoniae 940) | antibacterial activity (dilution susceptibility test) (S. aureus 1137) | antibacterial activity (dilution susceptibility test) (S. marcescens 1635) | antibacterial activity (dilution susceptibility test) (M. catarrhalis 557) | antibacterial activity (dilution susceptibility test) (S. pneumoniae 975) | antibacterial activity (dilution susceptibility test) (E. coli 2269) | antibacterial activity (dilution susceptibility test) (E. faecium 700221) | antibacterial activity (dilution susceptibility test) (S. aureus (ATCC 29213)) | antibacterial activity (dilution susceptibility test) (S. aureus 1725) | antibacterial activity (dilution susceptibility test) (S. aureus (ATCC 6538)) | antibacterial activity (dilution susceptibility test) (H. influenzae 1742) | antibacterial activity (dilution susceptibility test) (K. pneumoniae 2262) | antibacterial activity (dilution susceptibility test) [2] | antibacterial activity (dilution susceptibility test) (S. aureus (ATCC 43300)) | antibacterial activity (dilution susceptibility test) (S. pneumoniae 376) | antibacterial activity (dilution susceptibility test) (K. pneumoniae 2239) | antibacterial activity (dilution susceptibility test) (S. aureus 2012) | antibacterial activity (dilution susceptibility test) (E. faecalis 846) | other results |
| --- | --- | --- | --- | --- | --- | --- | --- | --- | --- | --- | --- | --- | --- | --- | --- | --- | --- | --- | --- | --- | --- |
| CC(=O)NC[C@H]1CN(c2ccc(N3CCOCC3)c(F)c2)C(=O)O1 [Linezolid] | >64 | >64 | 0.5 | 4 | >64 | 8 | 1 | >64 | 1 | 4 | 4 | 0.5 | 8 | >64 | 16 | 1 | 1 | >64 | 1 | – | – |
| C[C@@H](O)[C@H]1C(=O)N2C(C(=O)O)=C(S[C@@H]3CN[C@H](C(=O)N(C)C)C3)[C@H](C)[C@H]12 [Meropenem] | 0.03 | – | 1 | >4 | 0.12 | ≦0.04 | 0.015 | 0.03 | – | 0.12 | 0.25 | – | 0.06 | >4 | 0.03 | – | 0.015 | 0.06 | >4 | – | – |
| CN[C@H](CC(C)C)C(=O)N[C@H]1C(=O)N[C@@H](CC(N)=O)C(=O)N[C@H]2C(=O)N[C@H]3C(=O)N[C@H](C(=O)N[C@H](C(=O)O)c4cc(O)cc(O)c4-c4cc3ccc4O)[C@H](O)c3ccc(c(Cl)c3)Oc3cc2cc(c3O[C@@H]2O[C@H](CO)[C@@H](O)[C@H](O)[C@H]2O[C@H]2C[C@](C)(N)[C@H](O)[C@H](C)O2)Oc2ccc(cc2Cl)[C@H]1O [Vancomycin] | >64 | >64 | 0.25 | 1 | >64 | >64 | 0.5 | >64 | >64 | 1 | 1 | 0.5 | >64 | >64 | 64 | 2 | 0.5 | >64 | 8 | >64 | antibacterial activity (dilution susceptibility test) (S. agalactiae 2033): 0.5; antibacterial activity (dilution susceptibility test) (S. pneumoniae 933): 0.5; antibacterial activity (dilution susceptibility test) (S. saprophyticus 495): 1; antibacterial activity (dilution susceptibility test) (S. epidermidis 1452): 2; antibacterial activity (dilution susceptibility test) (S. epidermidis 1597): 2; antibacterial activity (dilution susceptibility test) (S. aureus 2018): 8; antibacterial activity (dilution susceptibility test) (S. aureus 2144): 1; antibacterial activity (dilution susceptibility test) (S. aureus 1651): 1; antibacterial activity (dilution susceptibility test) (S. pyogenes 723): 0.5 |
| COC(=O)c1c(C)cc2c(c1O)[C@]1(O)C(=O)c3cc4c(c(O)c3C(=O)[C@]1(OC)[C@H](O)C2)C(=O)C=C(N[C@H]1O[C@@H](C)[C@H](OC)[C@@H](O)[C@H]1OC)C4=O [Cmpd 12] | 32 | 32 | ≦0.06 | ≦0.06 | 64 | 0.12 | ≦0.06 | 32 | 0.06 | ≦0.06 | ≦0.06 | 0.008 | 4 | 64 | 8 | 0.008 | ≦0.06 | 64 | ≦0.06 | ≦0.06 | antibacterial activity (dilution susceptibility test) (S. agalactiae 2033): ≦0.06; antibacterial activity (dilution susceptibility test) (S. pneumoniae 933): ≦0.06; antibacterial activity (dilution susceptibility test) (S. saprophyticus 495): ≦0.06; antibacterial activity (dilution susceptibility test) (S. epidermidis 1452): ≦0.06; antibacterial activity (dilution susceptibility test) (S. epidermidis 1597): ≦0.06; antibacterial activity (dilution susceptibility test) (S. aureus 2018): ≦0.06; antibacterial activity (dilution susceptibility test) (S. aureus 2144): ≦0.06; antibacterial activity (dilution susceptibility test) (S. aureus 1651): ≦0.06; antibacterial activity (dilution susceptibility test) (S. pyogenes 723): ≦0.06 |
